In publication PMC5472792, “Bub1 positions Mad1 close to KNL1 MELT repeats to promote checkpoint signalling” (Nature Communications, 2017):
Square brackets hold non-standard residues; d marks the D form. Peptide text beside a SMILES is read from it. * marks the point of attachment. Biotin = O=C1N[C@H]2[C@H](CS[C@H]2CCCCC(=O)*)N1; pT = C[C@@H](OP(=O)(O)O)[C@H](N)C(=O)O; Nle = CCCC[C@H](N)C(=O)O

Molecular target: T1, Mad1 597–718 Glu710Ala/Phe712Ala (Homo sapiens, UniProt Q9Y6D9, E710A/F712A)
T1 construct: His; Strep; made in house; host or cells: E. coli BL21(DE3) (stated for the wild-type construct)
T1 sequence (Q9Y6D9 597-718 E710A/F712A): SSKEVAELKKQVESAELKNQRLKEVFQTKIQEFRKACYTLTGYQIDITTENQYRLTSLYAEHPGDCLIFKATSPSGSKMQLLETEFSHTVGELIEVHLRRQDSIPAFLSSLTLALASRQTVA
Assay: SPR, binding of CD1 peptide to Mad1 597–718 Glu710Ala/Phe712Ala
Details: steady state, similar to Fig. 4
Text: To investigate this, we first tested the role of these Mad1 residues in binding Bub1. We measured the ability of recombinant Mad1 (597–718) Glu710Ala/Phe712Ala to bind the CD1 peptide phosphorylated on Thr461. […] This argues that Mad1 has an important function in the checkpoint in addition to interacting with Mad2 and Bub1.
Figure 6 Residues in Mad1 are important for SAC function but not Bub1 binding. (a) SPR steady-state responses for pT461 Bub1 CD1 peptides to purified Mad1 597–718 Glu710Ala/Phe712Ala protein similar to Fig. 4. (b) Nocodazole arrested stable HeLa cell lines expressing Mad1-BirA or mutants were treated with biotin as indicated and biotinylated proteins were isolated. The samples were analysed for the presence of KNL1, Bub1 and BubR1 by western blot. Mad1-BirA (WT), Mad1(EFR/AAA)-BirA and Mad1 (RLK/AAA)-BirA. Representative of two independent experiments. […] Live cell imaging and quantification were performed as in Fig. 5a. […] The number of cells analysed per condition is indicated above. […]
Bub1 peptides were purchased from Biosyntan Gmbh (Germany). The purity obtained in the synthesis was 95–98% as determined by high-performance liquid chromatography (HPLC) and the identity of the peptides was confirmed by mass spectrometry. […] Sensorgrams were analysed after double referencing. […]

For `CCCC[C@H](NC(=O)[C@H](CC(N)=O)NC(=O)[C@H](CCCC)NC(=O)[C@@H](NC(=O)[C@H](Cc1ccccc1)NC(=O)CNC(=O)[C@H](CC(C)C)NC(=O)[C@H](C)NC(=O)[C@H](CCC(=O)O)NC(=O)[C@H](CCCCN)NC(=O)[C@@H](NC(=O)[C@H](Cc1c[nH]cn1)NC(=O)[C@@H](NC(=O)[C@@H](NC(=O)[C@@H]1CCCN1C(=O)[C@H](CO)NC(=O)[C@@H]1CCCN1C(=O)[C@H](CCC(N)=O)NC(=O)[C@@H](NC(=O)[C@H](CCCCN)NC(=O)[C@H](CO)NC(=O)[C@@H]1CCCN1C(=O)[C@@H](NC(=O)[C@H](C)NC(=O)[C@H](CCC(N)=O)NC(=O)[C@@H](NC(=O)CCCC[C@@H]1SC[C@@H]2NC(=O)N[C@@H]21)C(C)C)[C@@H](C)O)C(C)C)[C@@H](C)OP(=O)(O)O)C(C)C)[C@@H](C)O)[C@@H](C)CC)C(=O)N[C@@H](Cc1ccccc1)C(=O)N[C@@H](CCC(N)=O)C(=O)N[C@@H](C)C(=O)N1CCC[C@H]1C(=O)N[C@H](C(=O)N[C@@H](CC(C)C)C(=O)N[C@@H](Cc1c[nH]c2ccccc12)C(=O)O)[C@@H](C)O` [CD1 pT461] (Biotin-VQATPSKVQPSP[pT]VHTKEALGFI[Nle]N[Nle]FQAPTLW-OH; C-terminus assumed), the KD was “the same affinity towards phosphorylated CD1 as wild type Mad1”.
